Measurements reported in PubChem BioAssay AID208 (DTP/NCI, 2004).
Values joined by “and” are separate entries in the source; they are usually repeats but may differ in a detail not shown here. Identical values can stand only once. Inconclusive results are not listed.

System: HT29 intrarenal xenograft, nude mice, tumor weight change
Assay: NCI In Vivo Anticancer Drug Screen. Data for tumor model HT29;CX-1 Human Adenocarcinoma (MER+) (intrarenal inoculation) in NU/NU BALB/C (nude) mice
Settings: endpoint: mean tumor weight change, higher = larger tumour
Procedure: The antitumor activity of compounds was measured in mice bearing transplantable tumors. Survival or tumor size were measured and the results are expressed as the measurement made in the treated group (T) divided by the measurement made in the vehicle treated control group (C). The tumor model used in this assay is HT29;CX-1 Human Adenocarcinoma (MER+) (intrarenal inoculation) in NU/NU BALB/C (nude) mice

[1] = dose: 50.0 mg/kg/injection, schedule: Q04DX004 (sc), vehicle: saline
[2] = dose: 100.0 mg/kg/injection, schedule: Q04DX004 (sc), vehicle: saline
[3] = dose: 200.0 mg/kg/injection, schedule: Q04DX004 (sc), vehicle: saline
[4] = dose: 300.0 mg/kg/injection, schedule: Q04DX004 (sc), vehicle: saline with Tween-80
[5] = dose: 600.0 mg/kg/injection, schedule: Q04DX004 (sc), vehicle: saline with Tween-80
[6] = dose: 1200.0 mg/kg/injection, schedule: Q04DX004 (sc), vehicle: saline with Tween-80
[7] = dose: 2400.0 mg/kg/injection, schedule: Q04DX004 (sc), vehicle: saline with Tween-80
[8] = dose: 100.0 mg/kg/injection, schedule: Q01DX010 (sc), vehicle: Klucel (hydroxypropylcellulose) (HPC)
[9] = dose: 200.0 mg/kg/injection, schedule: Q01DX010 (sc), vehicle: Klucel (hydroxypropylcellulose) (HPC)
[10] = dose: 200.0 mg/kg/injection, schedule: Q04DX004 (sc), vehicle: saline with Tween-80
[11] = dose: 400.0 mg/kg/injection, schedule: Q04DX004 (sc), vehicle: saline with Tween-80
[12] = dose: 25.0 mg/kg/injection, schedule: Q04DX004 (sc), vehicle: saline
[13] = dose: 75.0 mg/kg/injection, schedule: Q04DX004 (sc), vehicle: saline

In the case of O=Cc1ccc(C=O)c(Cl)c1, the T/C (dose: 150.0 mg/kg/injection, schedule: Q04DX004 (sc), vehicle: Klucel (hydroxypropylcellulose) (HPC)) is reported as 92 % of control, the T/C (dose: 300.0 mg/kg/injection, schedule: Q04DX004 (sc), vehicle: Klucel (hydroxypropylcellulose) (HPC)) is reported as 81 % of control and the T/C (dose: 600.0 mg/kg/injection, schedule: Q04DX004 (sc), vehicle: Klucel (hydroxypropylcellulose) (HPC)) is reported as 109 % of control. The T/C (dose: 1200.0 mg/kg/injection, schedule: Q04DX004 (sc), vehicle: Klucel (hydroxypropylcellulose) (HPC)) was 114 % of control.

In the case of Nc1ccn([C@@H](C=O)O[C@@H](C=O)CO)c(=O)n1, the T/C [1] is reported as 117 % of control, the T/C [2] is reported as 71 % of control and the T/C [3] is reported as 113 % of control.

In the case of NC(Cc1ccc(N(CCCl)CCCl)cc1)C(=O)O (stereo not drawn), the T/C (dose: 5.0 mg/kg/injection, schedule: Q04DX004 (sc), vehicle: saline) is reported as 46 % of control, the T/C (dose: 10.0 mg/kg/injection, schedule: Q04DX004 (sc), vehicle: saline) is reported as 106 % of control and the T/C (dose: 20.0 mg/kg/injection, schedule: Q04DX004 (sc), vehicle: saline) is reported as 47 % of control.

With O=C(c1cccnc1)c1cc(-c2ccccn2)c(=O)n2ccccc12 the T/C [4] was 87 % of control, the T/C [5] was 21 % of control and the T/C [6] was 77 % of control. For the same molecule, the T/C [7] was 83 % of control.

For O=P1(N(CCCl)CCCl)NCCCO1 (stereo not drawn), the T/C (dose: 60.0 mg/kg/injection, schedule: Q04DX004 (ip), vehicle: saline) was 62 % of control and 77 % of control and 83 % of control and the T/C [2] was 19 % of control and 21 % of control.

C[CH2][Sn]([CH2]C)([O]S(C)(=O)=O)[O]S(C)(=O)=O was tested, and the T/C (dose: 6.25 mg/kg/injection, schedule: Q04DX004 (sc), vehicle: saline with Tween-80) was 169 % of control and the T/C (dose: 12.5 mg/kg/injection, schedule: Q04DX004 (sc), vehicle: saline with Tween-80) was 107 % of control.

For CN(C)P(=O)(Oc1ccccc1)N(C)C, the T/C [6] was 78 % of control.

For O=C1c2ccccc2C(=O)c2c1cn1c2Cc2ccccc2C1, the T/C (dose: 37.5 mg/kg/injection, schedule: Q04DX004 (ip), vehicle: Klucel (hydroxypropylcellulose) (HPC)) was 908 % of control, the T/C (dose: 75.0 mg/kg/injection, schedule: Q04DX004 (ip), vehicle: Klucel (hydroxypropylcellulose) (HPC)) was 537 % of control and the T/C (dose: 150.0 mg/kg/injection, schedule: Q04DX004 (ip), vehicle: Klucel (hydroxypropylcellulose) (HPC)) was 753 % of control. For the same molecule, the T/C (dose: 300.0 mg/kg/injection, schedule: Q04DX004 (ip), vehicle: Klucel (hydroxypropylcellulose) (HPC)) was 188 % of control and the T/C (dose: 600.0 mg/kg/injection, schedule: Q04DX004 (ip), vehicle: Klucel (hydroxypropylcellulose) (HPC)) was 450 % of control.

CN(C)N=Nc1ccc(S(N)(=O)=O)cc1 was tested, and the T/C [8] was 81 % of control and the T/C [9] was 104 % of control.

With O=C(NC1CCCCC1)OCc1c(COC(=O)NC2CCCCC2)c(-c2ccc(Cl)c(Cl)c2)n2c1CCC2 the T/C (dose: 150.0 mg/kg/injection, schedule: Q04DX004 (sc), vehicle: saline with Tween-80) was 67 % of control, the T/C [4] was 60 % of control and the T/C [5] was 54 % of control. For the same molecule, the T/C [6] was 65 % of control.

With c1ccc2c(c1)nnn1c3cnccc3nc21 the T/C (dose: 50.0 mg/kg/injection, schedule: Q01DX010 (sc), vehicle: saline with Tween-80) was 246 % of control and the T/C (dose: 100.0 mg/kg/injection, schedule: Q01DX010 (sc), vehicle: saline with Tween-80) was 65 % of control.

In the case of CC[C@@]1(O)C[C@H](OC2CC(N(C)C)C(OC3CC(O)C(OC4CCC(=O)C(C)O4)C(C)O3)C(C)O2)c2c(cc3c(c2O)C(=O)c2c(O)cccc2C3=O)[C@H]1C(=O)OC (stereo partly drawn), the T/C (dose: 1.0 mg/kg/injection, schedule: Q01DX010 (ip), vehicle: water) is reported as 58 % of control and the T/C (dose: 2.0 mg/kg/injection, schedule: Q01DX010 (ip), vehicle: water) is reported as 37 % of control.

In the case of CC(=O)Oc1ccc[nH]c1=O, the T/C [10] is reported as 88 % of control, the T/C [11] is reported as 104 % of control and the T/C (dose: 800.0 mg/kg/injection, schedule: Q04DX004 (sc), vehicle: saline with Tween-80) is reported as 122 % of control.

C=C(NC(=O)C(=C)NC(=O)c1csc(C2=NC3c4csc(n4)C4NC(=O)c5csc(n5)C(C(C)(O)C(C)O)NC(=O)C5CSC(=N5)/C(=C/C)NC(=O)C(C(C)O)NC(=O)c5csc(n5)C3(CC2)NC(=O)C(C)NC(=O)C(=C)NC(=O)C(C)NC(=O)C(C(C)CC)NC2C=Cc3c(C(C)O)cc(nc3C2O)C(=O)OC4C)n1)C(N)=O (stereo not drawn) was tested, and the T/C (dose: 400.0 mg/kg/injection, schedule: Q01DX010 (sc), vehicle: Klucel (hydroxypropylcellulose) (HPC)) was 81 % of control, the T/C (dose: 800.0 mg/kg/injection, schedule: Q01DX010 (sc), vehicle: Klucel (hydroxypropylcellulose) (HPC)) was 96 % of control and the T/C (dose: 1600.0 mg/kg/injection, schedule: Q01DX010 (sc), vehicle: Klucel (hydroxypropylcellulose) (HPC)) was 44 % of control. For the same molecule, the T/C (dose: 2400.0 mg/kg/injection, schedule: Q01DX010 (sc), vehicle: Klucel (hydroxypropylcellulose) (HPC)) was 71 % of control.

In the case of NC(=O)c1ccc[n+](Cc2c(Cl)cccc2Cl)c1, the T/C [12] is reported as 93 % of control, the T/C [1] is reported as 91 % of control and the T/C [3] is reported as 205 % of control.

For CC(/C=C/c1ccccc1)=Nc1ccccc1, the T/C [6] was 46 % of control and the T/C (dose: 1800.0 mg/kg/injection, schedule: Q04DX004 (sc), vehicle: saline with Tween-80) was 54 % of control.

NC(CNC(=O)CBr)C(=O)O (stereo not drawn) was tested, and the T/C (dose: 37.5 mg/kg/injection, schedule: Q04DX004 (sc), vehicle: water) was 106 % of control, the T/C (dose: 75.0 mg/kg/injection, schedule: Q04DX004 (sc), vehicle: water) was 96 % of control and the T/C (dose: 150.0 mg/kg/injection, schedule: Q04DX004 (sc), vehicle: water) was 43 % of control.

N#CC(C#N)=C/C=C/c1cccc([N+](=O)[O-])c1 was tested, and the T/C (dose: 25.0 mg/kg/injection, schedule: Q01DX010 (sc), vehicle: Klucel (hydroxypropylcellulose) (HPC)) was 81 % of control, the T/C (dose: 50.0 mg/kg/injection, schedule: Q01DX010 (sc), vehicle: Klucel (hydroxypropylcellulose) (HPC)) was 90 % of control and the T/C [8] was 76 % of control. For the same molecule, the T/C [9] was 63 % of control.

CCc1ccc(C2=C(O)C(=O)C(c3ccc(CC)cc3)=C(O)C2=O)cc1 was tested, and the T/C (dose: 100.0 mg/kg/injection, schedule: Q04DX004 (sc), vehicle: saline with Tween-80) was 112 % of control, the T/C [10] was 91 % of control and the T/C [11] was 102 % of control.

In the case of CC1(C)COCN1COCCOCN1COCC1(C)C, the T/C [1] is reported as 66 % of control, the T/C [2] is reported as 122 % of control and the T/C [3] is reported as 58 % of control. The T/C (dose: 400.0 mg/kg/injection, schedule: Q04DX004 (sc), vehicle: saline) was 122 % of control.

O=C1c2ccccc2C(=O)c2c(NCCNCCO)ccc(O)c21 was tested, and the T/C (dose: 12.5 mg/kg/injection, schedule: Q04DX004 (sc), vehicle: saline) was 104 % of control, the T/C [12] was 105 % of control and the T/C [2] was 74 % of control.

For c1ccc2c(c1)-c1ccccc1C1NC21 (stereo not drawn), the T/C (dose: 75.0 mg/kg/injection, schedule: Q04DX004 (sc), vehicle: saline with Tween-80) was 41 % of control.

With CCNC=O the T/C (dose: 150.0 mg/kg/injection, schedule: Q01DX010 (ip), vehicle: suspension in saline) was 82 % of control, the T/C (dose: 300.0 mg/kg/injection, schedule: Q01DX010 (ip), vehicle: suspension in saline) was 42 % of control and the T/C (dose: 600.0 mg/kg/injection, schedule: Q01DX010 (ip), vehicle: suspension in saline) was 39 % of control.

With CN(C)CCC(=O)C(=Cc1ccc(O)cc1)C(=O)CCN(C)C the T/C (dose: 75.0 mg/kg/injection, schedule: Q04DX004 (ip), vehicle: saline) was 66 % of control and the T/C (dose: 150.0 mg/kg/injection, schedule: Q04DX004 (ip), vehicle: saline) was 100 % of control.

Cc1cc2cc3cc(C)c(N)cc3nc2cc1N was tested, and the T/C [5] was 115 % of control and the T/C [7] was 77 % of control.

For Cn1c(=O)[nH]c2nncnc2c1=O, the T/C (dose: 60.0 mg/kg/injection, schedule: Q04DX004 (sc), vehicle: water) was 124 % of control.

In the case of C[C@@H]1C[C@@H]([C@H](O)CC2CC(=O)NC(=O)C2)C(=O)[C@@H](C)C1, the T/C [13] is reported as 43 % of control.

For NC1(C(=O)O)CCCC1, the T/C (dose: 50.0 mg/kg/injection, schedule: Q01DX010 (sc), vehicle: saline) was 37 % of control and 40 % of control and the T/C (dose: 100.0 mg/kg/injection, schedule: Q01DX010 (sc), vehicle: saline) was 12 % of control and 22 % of control.

With Oc1ccc(CCl)c2cccnc12 the T/C [13] was 76 % of control, the T/C (dose: 150.0 mg/kg/injection, schedule: Q04DX004 (sc), vehicle: saline) was 110 % of control and the T/C (dose: 300.0 mg/kg/injection, schedule: Q04DX004 (sc), vehicle: saline) was 89 % of control.
